Data reported in patent publication US20110076230A1, “Novel Substituted Indoles” (priority 2008, published 2011).

biological target: human AD brain homogenates (Homo sapiens, UniProt P05067); test: Tissue homogenate binding assay (competition with [3H]-DMAB); conditions: human AD brain (frontal cortex) tissue homogenate; radioligand [3H]-DMAB 1.5 nM; 90 minutes at room temperature
Procedure: Homogenates from AD and non-AD human brain samples were assessed for their immunoreactivity to anti-Aβ antibody 6E10. The highest and lowest levels of 6E10 immunoreactivity were chosen for the AD group and the non-AD control group, respectively. Candidate Aβ compounds were initially selected based on their structural similarity to published amyloid ligands and then for high affinity in competing with [^3H]PIB binding to AD brain homogenates. These compounds were radiolabeled with [^3H] and tested for binding affinity to human AD brain homogenates as well as binding to human non-AD brain homogenates. [^3H]-DMAB (see structure below) was selected based from these candidates based on its binding affinity for human AD brain homogenates, and minimal binding to non-AD control homogenates. A low fraction of non-displaceable binding was also an important criterion.
PET radiotracer candidate compounds were then selected based on their high affinity competition with [^3H]-DMAB in binding to AD brain homogenates. These PET radiotracer candidate compounds were tested to determine if they were effective PgP substrates. Those PET radiotracer candidate compounds with little PgP substrate activity were radiolabeled with [^3H] or [^18F] and tested for binding affinity to human AD brain homogenates as well as binding to human non-AD brain homogenates and in autoradiographic studies using human AD and non-AD brain slices. Candidate radioligands were selected based on their strong binding affinity for human AD brain homogenates, and minimal binding to non-AD control homogenates. A low fraction of non-displaceable binding was also an important criterion. Minimization of white matter binding was an important criterion.
Postmortem frozen human brain samples from donors with clinical diagnosis of Alzheimer's diseases (AD) or normal control subjects (non-AD) were purchased from Analytical Biological Services Inc., at 701-4 Cornell Business Park, Wilmington, Del. […]
[^3H]-DMAB was synthesized at a specific activity of ˜80 Ci/mmol. […] Total binding was defined in the absence of competing compound, and non-displaceable binding was determined in the presence of 1 μM unlabeled self block. […] Incubation was carried out at room temperature (25° C.) for 90 minutes, and then the assay samples were filtered onto GF/C filters using Skatron 12 well harvester, washing on setting 5−5−5 ((˜3×2 ml) ice cold buffer (PBS, pH 7.4). GF/C filter papers for the Skatron harvester were pre-soaked in 0.1% BSA for 1 hour at room temperature before use. Filters were punched into scintillation vials and counted in 2 mL Ultima Gold on Perkin Elmer Tri-Carb 2900TR for 1 minute. The data analysis was done with Prism software. All assays were done in triplicate, and in the laboratory designated for studies using human tissues.

human AD brain homogenates, sequence (P05067 672-711 limits assumed): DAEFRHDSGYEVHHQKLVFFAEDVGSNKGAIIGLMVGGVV

IC50 [nM] | SMILES
245 | Cc1ccc2cc(-c3ccc(-n4ccnc4)nc3)[nH]c2c1
40 | CNc1ccc(-c2cc3ccc(Cl)cc3[nH]2)cn1
10 | COc1ccc2[nH]c(-c3ccc(-n4cncn4)nc3)cc2c1
79 | N#Cc1ccc2cc(-c3cnc4[nH]ccc4c3)[nH]c2c1
